# Patent US20220204654A1, “CYCLODEXTRIN SUPRAMOLECULAR SCAFFOLDS AND USES THEREOF” (Massachusetts Institute of Technology, priority 2019, published 2022)
# Tests used:
# [1] = Isothermal titration calorimetry (ITC) glucose binding assay; conditions: ITC binding isotherm, read-out: binding affinity (Kd)
# Protocol: Binding studies were then carried out using isothermal titration calorimetry (ITC) to measure thermodynamic properties during binding. ITC was chosen as the preferred method to confirm binding of glucose as this assay excludes the possibilities of any false positive data. The ITC based binding assay needed significant optimization with respect to macromolecule concentration, choice of buffer, ways of desalting, concentration of the glucose solution, etc.
# [2] = unmodified cyclodextrin with adamantine (AD), comparison statement; cited from earlier work
molecule,measurement,setting,value
OCC1O[C@@H]2O[C@@H]3C(CO)O[C@H](O[C@@H]4C5CSCc6ccc(cc6)-c6ccc(cc6)CSCC6O[C@H](O[C@@H]7C(CO)O[C@H](O[C@H]1C(O)C2O)C(O)C7O)C(O)C(O)[C@@H]6O[C@H]1OC(CO)[C@@H](O[C@H]2OC(CO)[C@@H](O[C@@H](O5)C(O)C4O)C(O)C2O)C(O)C1O)C(O)C3O (some centres unmarked) [CDC1],Kd,[1],~5 mM
cyclodextrin,dissociation constant,[2],micromolar range
